Earlier results, collected in patent US5177064A, “Targeted drug delivery via phosphonate derivatives” (University of Florida, priority 1990, dated 1993).
Converted amounts (≈) assume the structure as drawn. Values belong to the compound of their own block, whether it stands above or below them.

Columns and labels:
[1] = at 37° C.
[2] = test system: encephalitis; details: treatment of encephalitis in vitro and in vivo
[3] = test system: HCMV; details: in vitro; read-out: IC50 against HCMV
[4] = humans
[5] = human, in vivo
[6] = test system: encephalitis
[7] = intravenous, biphasic elimination

Compound: Nc1nc(O)c2ncn(COC(CO)CO)c2n1 [DHPG, Dihydroxypropoxymethylgaunine]
- aqueous solubility [1]: 5100 µg/mL (≈ 20 mM)
- effectiveness relative to acyclovir [2]: at least 100 fold
- IC50 [3]: ~2.5 µM
- drug excreted unchanged by the kidneys [4]: 99%
- oral bioavailability ([4]; based on urinary excretion): 3-4.6%
- α-phase half-life [4, 7]: 0.23 h
- β-phase half-life [4, 7]: 2.53 h

Compound: Cc1cn([C@@H]2O[C@H](CO)[C@@H](O)[C@@H]2F)c(=O)[nH]c1=O [FMAU]
- doses producing irreversible neurological damage ([6]; in vivo): greater than 32 mg
- therapeutic index ([6]; treating encephalitis): greater than 3,000

Second part, the compound after the results:

- log P: 2.06
Compound: NC(=O)c1ncn([C@@H]2O[C@H](CO)[C@@H](O)[C@H]2O)n1 [ribavirin, 1-β-D-ribofuranosyl-1,2,4-triazole-3-carboxamide]

- bioavailability [5]: about 60%
Compound: Cc1cn([C@H]2C[C@H](N=[N+]=[N-])[C@@H](CO)O2)c(=O)[nH]c1=O [AZT, azidothymidine]

- log P (octanol/water) (octanol/water): negative
Compound: Nc1ncnc2c1ncn2[C@@H]1O[C@H](CO)[C@@H](O)[C@@H]1O [Ara-A, 9-β-D-arabinofuranosyladenine]
